The values below come from ChEMBL document CHEMBL1201862, “PubChem BioAssay data set” (2004).

Among the test systems are SR; LOX IMVI; CCRF-CEM; SN12C; U-251; SK-MEL-5; OVCAR-5; OVCAR-3; RXF 393; MDA-N; UACC-62; TK-10; SF-539; SF-268; HCT-116; EKVX; NCI-H23; Hs-578T; NCI-H226; MOLT-4.
Assay in all cases: inhibition of tumour cell growth, NCI panel, 48 h

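Growth conditions: 96-well plates. Treatment: test compound, 48 hours, 5 concentrations. Analysis: linear interpolation between bracketing concentrations; unreached endpoints set to highest concentration. Abbreviation: GI50, concentration required for 50% inhibition of growth.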 Active and inactive are the calls of the source. Rule as the data show it: active = GI50 up to about 1.1 µM and inactive = higher.

For the molecule `Oc1cc(Cl)cc2cc(Cl)cnc12`, the GI50 in the experiment with SR is 1.56 µM (inactive); in the experiment on LOX IMVI it was 0.597 µM (active); in the experiment on CCRF-CEM, 1.78 µM (inactive); with SN12C, 2.3 µM (inactive); in the experiment with U-251, 2.42 µM (inactive); with SK-MEL-5, 3.67 µM (inactive). Moreover, the GI50 in the experiment on OVCAR-5 is 17.5 µM (inactive); with OVCAR-3, 0.582 µM (active); with RXF 393 it was 5.07 µM (inactive); in the experiment with MDA-N it was 6.34 µM (inactive); in the experiment on UACC-62, 2.49 µM (inactive); with TK-10 it was 27.5 µM (inactive). In addition, the GI50 with SF-539 was 3.24 µM (inactive); with SF-268, 1.14 µM (inactive); in the experiment on HCT-116 it was 2.67 µM (inactive); in the experiment on EKVX it was 2.85 µM (inactive); in the experiment on NCI-H23, 2.75 µM (inactive); with Hs-578T, 22.1 µM (inactive). The GI50 was 19.5 µM (inactive) with NCI-H226 and 2.89 µM (inactive) with MOLT-4.
`COC(=O)C12Oc3ccc(-c4ccc5c(c4O)C(O)=C4C(=O)CC(C)C(O)C4(C(=O)OC)O5)c(O)c3C(O)=C1C(=O)CC(C)C2O` (stereo not given): the GI50 is 0.0234 µM (active) in the experiment on SR; 0.151 µM (active) with LOX IMVI; 0.0255 µM (active) with CCRF-CEM; 0.121 µM (active) with SN12C; 0.0525 µM (active) with U-251; 0.0394 µM (active) in the experiment on SK-MEL-5. In addition, the GI50 with OVCAR-5 was 0.119 µM (active); in the experiment with OVCAR-3, 0.0719 µM (active); in the experiment on RXF 393, 0.0877 µM (active); with MDA-N it was 0.125 µM (active); in the experiment with UACC-62, 0.0708 µM (active); in the experiment with TK-10, 0.231 µM (active). Further, the GI50 in the experiment with SF-539 is 0.055 µM (active); with SF-268 it was 0.0843 µM (active); with HCT-116, 0.126 µM (active); in the experiment with EKVX, 0.0805 µM (active); in the experiment on NCI-H23, 0.0615 µM (active); in the experiment on Hs-578T it was 0.135 µM (active). Also, the figures for the GI50 with NCI-H226 and in the experiment with MOLT-4 were 0.416 µM (active) and 0.0641 µM (active), respectively.
Consider `O=C(NC1CCN(Cc2ccccc2)CC1)c1ccc(I)cc1`, for which the GI50 is > 100 µM (inactive) in the experiment with SR; > 100 µM (inactive) in the experiment on LOX IMVI; 76.7 µM (inactive) in the experiment with CCRF-CEM; > 100 µM (inactive) in the experiment with SN12C; 81.1 µM (inactive) in the experiment on U-251; 17.7 µM (inactive) with SK-MEL-5. In addition, the GI50 in the experiment with OVCAR-5 was > 100 µM (inactive); in the experiment with OVCAR-3, > 100 µM (inactive); with RXF 393, 25.2 µM (inactive); in the experiment with MDA-N it was 54.6 µM (inactive); in the experiment with UACC-62 it was 59.4 µM (inactive); in the experiment on TK-10, > 100 µM (inactive). The GI50 is 78.3 µM (inactive) in the experiment on SF-539; 63.8 µM (inactive) with SF-268; 39.6 µM (inactive) in the experiment on HCT-116; > 100 µM (inactive) with EKVX; 94.2 µM (inactive) in the experiment on NCI-H23; 33.2 µM (inactive) with Hs-578T. Besides, the GI50 was 33.4 µM (inactive) in the experiment with NCI-H226 and > 100 µM (inactive) in the experiment with MOLT-4.
For `O=C(O)C(=Cc1ccnc2ccccc12)C(=O)O`, the GI50 in the experiment with SR, with LOX IMVI, in the experiment with CCRF-CEM, in the experiment on SN12C, in the experiment on U-251 and in the experiment with SK-MEL-5 was > 100 µM (inactive) throughout. Also, the GI50 with OVCAR-5, in the experiment on OVCAR-3, in the experiment with RXF 393, in the experiment with MDA-N, in the experiment with UACC-62 and with TK-10 was > 100 µM (inactive) throughout. In addition, the GI50 in the experiment with SF-539, in the experiment on SF-268, in the experiment on HCT-116, with EKVX, with NCI-H23 and in the experiment on Hs-578T was > 100 µM (inactive) each time. Further, the GI50 in the experiment on NCI-H226 and with MOLT-4 was > 100 µM (inactive) in each case.
`O=C1c2c(Br)sc(Br)c2[C@@H](Cl)[C@H]1Cl`: the GI50 in the experiment on SR is 2.81 µM (inactive); in the experiment with LOX IMVI, 15.2 µM (inactive); in the experiment on CCRF-CEM it was 3.18 µM (inactive); in the experiment on SN12C, 8.87 µM (inactive); in the experiment with U-251, 14.5 µM (inactive); in the experiment with SK-MEL-5, 16.1 µM (inactive). The GI50 is 20.8 µM (inactive) in the experiment with OVCAR-5; 14.3 µM (inactive) in the experiment on OVCAR-3; 15.5 µM (inactive) in the experiment with RXF 393; 11 µM (inactive) with MDA-N; 18.2 µM (inactive) in the experiment with UACC-62; 29 µM (inactive) with TK-10. The GI50 with SF-539 is 12.5 µM (inactive); in the experiment on SF-268, 19.1 µM (inactive); in the experiment on HCT-116, 22.8 µM (inactive); in the experiment with EKVX it was 21.7 µM (inactive); in the experiment on NCI-H23, 12.9 µM (inactive); in the experiment on Hs-578T, 36.6 µM (inactive). Further, the GI50 was 16.4 µM (inactive) with NCI-H226 and 14.9 µM (inactive) in the experiment with MOLT-4.
`CCCCC1Cc2cc(OC)ccc2-c2nc3cc(OC)ccc3n21.CCCCC1Cc2cc(OC)ccc2-c2nc3ccc(OC)cc3n21` (stereo not given): the GI50 with SR was 11.6 µM (inactive); with LOX IMVI it was 16.4 µM (inactive); in the experiment on CCRF-CEM it was 13.8 µM (inactive); with SN12C, 14.7 µM (inactive); in the experiment on U-251, 15 µM (inactive); in the experiment with SK-MEL-5, 14.3 µM (inactive). Further, the GI50 is 16.9 µM (inactive) with OVCAR-5; 15 µM (inactive) with OVCAR-3; 17 µM (inactive) in the experiment on RXF 393; 14 µM (inactive) in the experiment with MDA-N; 12.9 µM (inactive) in the experiment with UACC-62; 18.7 µM (inactive) in the experiment with TK-10. For the same molecule, the GI50 is 16.1 µM (inactive) in the experiment on SF-539; 17.6 µM (inactive) in the experiment with SF-268; 10.9 µM (inactive) in the experiment with HCT-116; 12.6 µM (inactive) with EKVX; 14.7 µM (inactive) with NCI-H23; 12.7 µM (inactive) in the experiment with Hs-578T. Moreover, the GI50 was 14 µM (inactive) in the experiment with NCI-H226 and 10.2 µM (inactive) in the experiment on MOLT-4.
Take `CC(C)NC(=O)OCc1c(COC(=O)NC(C)C)c(-c2cc[n+](COC(=O)C(C)(C)C)cc2)n2c1CCC2`: the GI50 in the experiment with SR was 19.1 µM (inactive); with LOX IMVI, > 100 µM (inactive); in the experiment on CCRF-CEM, > 100 µM (inactive); in the experiment on SN12C it was > 100 µM (inactive); in the experiment on U-251, > 100 µM (inactive); in the experiment on SK-MEL-5, > 100 µM (inactive). The GI50 in the experiment on OVCAR-5, with OVCAR-3, with RXF 393, in the experiment on MDA-N, in the experiment on UACC-62 and in the experiment on TK-10 was > 100 µM (inactive) each time. The GI50 in the experiment with SF-539, in the experiment on SF-268, in the experiment with HCT-116, in the experiment with EKVX, with NCI-H23 and with Hs-578T was > 100 µM (inactive) in each case. Moreover, the GI50 with NCI-H226 and with MOLT-4 was > 100 µM (inactive) throughout.
Take `CCCCc1c2c(nc3c1CCC/C3=C\c1ccccc1)C(=O)C(CN(C)C)CC2` (stereo not given): the GI50 in the experiment with SR was 2.76 µM (inactive); with LOX IMVI it was 16.2 µM (inactive); with CCRF-CEM, 3.17 µM (inactive); in the experiment with SN12C, 20.1 µM (inactive); in the experiment with U-251 it was 16.6 µM (inactive); with SK-MEL-5 it was 16.9 µM (inactive). For the same molecule, the GI50 in the experiment with OVCAR-5 was 18.2 µM (inactive); in the experiment with OVCAR-3 it was 19.5 µM (inactive); with RXF 393 it was 16.3 µM (inactive); with MDA-N, 7.28 µM (inactive); in the experiment on UACC-62, 20.3 µM (inactive); with TK-10, 15.7 µM (inactive). The GI50 is 20.7 µM (inactive) with SF-539; 16.2 µM (inactive) with SF-268; 16 µM (inactive) in the experiment on HCT-116; 18.5 µM (inactive) with EKVX; 16.5 µM (inactive) in the experiment with NCI-H23; 17.9 µM (inactive) in the experiment with Hs-578T. Also, the results for the GI50 in the experiment with NCI-H226 and in the experiment on MOLT-4 were 22.6 µM (inactive) and 2.86 µM (inactive), respectively.
Turning to `CC(C)[Si]1(C(C)C)OCC2OC(n3ccc(=O)[nH]c3=O)C([Se]c3ccccc3)C2O[Si](C(C)C)(C(C)C)O1` (stereo not given), the GI50 in the experiment on SR was 3.72 µM (inactive); in the experiment on LOX IMVI, 0.769 µM (active); in the experiment with CCRF-CEM, 8.91 µM (inactive); with SN12C it was 2.29 µM (inactive); in the experiment on U-251, 2.07 µM (inactive); in the experiment on SK-MEL-5, 3.01 µM (inactive). The GI50 in the experiment with OVCAR-5 was 9.48 µM (inactive); in the experiment with OVCAR-3, 4.52 µM (inactive); with RXF 393, 4.55 µM (inactive); in the experiment with MDA-N, 3.4 µM (inactive); in the experiment on UACC-62 it was 4.71 µM (inactive); in the experiment on TK-10, 7.46 µM (inactive). In addition, the GI50 with SF-539 is 7.96 µM (inactive); in the experiment on SF-268, 2.93 µM (inactive); in the experiment with HCT-116 it was 2.62 µM (inactive); in the experiment with EKVX, 4.93 µM (inactive); in the experiment with NCI-H23, 3.57 µM (inactive); in the experiment with Hs-578T, 0.762 µM (active). Besides, the GI50 with NCI-H226 is 1.55 µM (inactive); with MOLT-4 it was 7.38 µM (inactive).
For the molecule `Cn1c(-c2ccccc2)cc(-c2ccsc2)c1-c1ccsc1`, the GI50 with SR is 9.66 µM (inactive); in the experiment on LOX IMVI, > 100 µM (inactive); in the experiment with CCRF-CEM it was 50 µM (inactive); in the experiment with SN12C it was > 100 µM (inactive); in the experiment on U-251, > 100 µM (inactive); with SK-MEL-5, > 100 µM (inactive). In addition, the GI50 is > 100 µM (inactive) in the experiment with OVCAR-5; 34.3 µM (inactive) in the experiment on OVCAR-3; 33.3 µM (inactive) with RXF 393; > 100 µM (inactive) in the experiment on MDA-N; > 100 µM (inactive) in the experiment on UACC-62; > 100 µM (inactive) in the experiment on TK-10. Moreover, the GI50 with SF-539 was 95.5 µM (inactive); in the experiment with SF-268, > 100 µM (inactive); with HCT-116, 55.5 µM (inactive); in the experiment with EKVX, > 100 µM (inactive); in the experiment with NCI-H23 it was > 100 µM (inactive); with Hs-578T, > 100 µM (inactive). Moreover, the GI50 was 6.81 µM (inactive) in the experiment with NCI-H226 and > 100 µM (inactive) in the experiment on MOLT-4.
